Several values for one entry are separate records, joined by “and”; a condition that tells them apart may be missing. Identical values can stand only once. Inconclusive results and toxic doses are left out.
System: CD2F1 mice, L1210 leukemia ip, survival T/C
Experiment: NCI In Vivo Anticancer Drug Screen. Data for tumor model L1210 Leukemia (intraperitoneal) in CD2F1 (CDF1) mice
Details: higher = longer survival
Method in brief: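 Ratio T/C, where T is the treated-group value and C the vehicle-dosed control value, from mice implanted with a transplantable tumor.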

[1] = endpoint: mean survival time, dose: 25.0 mg/kg/injection, schedule: Q04DX002 (ip), vehicle: saline with Tween-80
[2] = endpoint: mean survival time, dose: 50.0 mg/kg/injection, schedule: Q04DX002 (ip), vehicle: saline with Tween-80
[3] = endpoint: mean survival time, dose: 100.0 mg/kg/injection, schedule: Q04DX002 (ip), vehicle: saline with Tween-80
[4] = endpoint: mean survival time, dose: 200.0 mg/kg/injection, schedule: Q04DX002 (ip), vehicle: saline with Tween-80
[5] = endpoint: mean survival time, dose: 400.0 mg/kg/injection, schedule: Q04DX002 (ip), vehicle: saline with Tween-80
[6] = endpoint: mean survival time, dose: 100.0 mg/kg/injection, schedule: Q01DX009 (ip), vehicle: saline with Tween-80
[7] = endpoint: mean survival time, dose: 100.0 mg/kg/injection, schedule: Q04DX003 (ip), vehicle: saline with Tween-80
[8] = endpoint: mean survival time, dose: 200.0 mg/kg/injection, schedule: Q01DX009 (ip), vehicle: saline with Tween-80
[9] = endpoint: mean survival time, dose: 200.0 mg/kg/injection, schedule: Q04DX003 (ip), vehicle: saline with Tween-80
[10] = endpoint: mean survival time, dose: 400.0 mg/kg/injection, schedule: Q01DX009 (ip), vehicle: saline with Tween-80
[11] = endpoint: mean survival time, dose: 400.0 mg/kg/injection, schedule: Q04DX003 (ip), vehicle: saline with Tween-80
[12] = endpoint: mean survival time, dose: 100.0 mg/kg/injection, schedule: Q01DX009 (ip), vehicle: saline
[13] = endpoint: mean survival time, dose: 200.0 mg/kg/injection, schedule: Q01DX009 (ip), vehicle: saline
[14] = endpoint: mean survival time, dose: 400.0 mg/kg/injection, schedule: Q01DX009 (ip), vehicle: saline
[15] = endpoint: mean survival time, dose: 50.0 mg/kg/injection, schedule: Q01DX009 (ip), vehicle: Klucel (hydroxypropylcellulose) (HPC)
[16] = endpoint: mean survival time, dose: 100.0 mg/kg/injection, schedule: Q01DX009 (ip), vehicle: Klucel (hydroxypropylcellulose) (HPC)
[17] = endpoint: mean survival time, dose: 100.0 mg/kg/injection, schedule: Q01DX009 (ip), vehicle: other
[18] = endpoint: mean survival time, dose: 200.0 mg/kg/injection, schedule: Q01DX009 (ip), vehicle: other
[19] = endpoint: mean survival time, dose: 100.0 mg/kg/injection, schedule: Q01DX001 (ip), vehicle: saline with Tween-80
[20] = endpoint: mean survival time, dose: 200.0 mg/kg/injection, schedule: Q01DX001 (ip), vehicle: saline with Tween-80

## CCCCCCCCCCCCCCCCCC(=O)Nc1ccn(C2OC(CO)C(O)C2O)c(=O)n1 (stereo not given)
[1]
  T/C: 229 % of control and 252 % of control
[2]
  T/C: 271 % of control and 325 % of control
endpoint: mean survival time, dose: 75.0 mg/kg/injection, schedule: Q04DX002 (ip), vehicle: saline with Tween-80
  T/C: 365 % of control
[3]
  T/C: 273 % of control and 313 % of control
[4]
  T/C: 122 % of control
[5]
  T/C: 110 % of control

## CN(Cc1cnc2nc(N)nc(N)c2n1)c1ccc(C(=O)NC(CCC(=O)O)C(=O)NC(CCC(=O)O)C(=O)O)cc1 (stereo not given)
endpoint: mean survival time, dose: 1.0 mg/kg/injection, schedule: Q01DX009 (ip), vehicle: sodium bicarbonate
  T/C: 105 % of control
endpoint: mean survival time, dose: 2.0 mg/kg/injection, schedule: Q01DX009 (ip), vehicle: sodium bicarbonate
  T/C: 100 % of control
endpoint: mean survival time, dose: 5.0 mg/kg/injection, schedule: Q01DX009 (ip), vehicle: sodium bicarbonate
  T/C: 102 % of control
endpoint: mean survival time, dose: 25.0 mg/kg/injection, schedule: Q01DX009 (ip), vehicle: sodium bicarbonate
  T/C: 167 % of control

## CCC1(O)CC2CN(CCc3c([nH]c4ccccc34)C(C(=O)OC)(c3cc4c(cc3OC)N(C)C3C(O)(C(=O)NCCSSCCNC(=O)C5(O)C(O)C6(CC)C=CCN7CCC8(c9cc(C%10(C(=O)OC)CC%11CN(CCc%12c%10[nH]c%10ccccc%12%10)CC(O)(CC)C%11)c(OC)cc9N(C)C58)C76)C(O)C5(CC)C=CCN6CCC43C65)C2)C1 (stereo not given)
endpoint: median survival time, dose: 1.08 mg/kg/injection, schedule: Q01DX009 (ip), vehicle: suspension in saline
  T/C: 111 % of control

## C=C1C(=O)O[C@H]2C[C@@H](C)[C@@H]3[C@@H](O)C[C@@H](O)[C@@]3(C)C[C@H]12
[6]
  T/C: 100 % of control
[7]
  T/C: 102 % of control
[8]
  T/C: 94 % of control
[9]
  T/C: 96 % of control
[10]
  T/C: 100 % of control
[11]
  T/C: 103 % of control

## CCOC(=O)CCC1(C(=O)OC)C(=O)CCCCCCC1C(=O)OC (stereo not given)
[6]
  T/C: 102 % of control
[8]
  T/C: 101 % of control
[10]
  T/C: 93 % of control

## NC(=O)CC(N)CO (stereo not given)
endpoint: mean survival time, dose: 50.0 mg/kg/injection, schedule: Q01DX009 (ip), vehicle: saline
  T/C: 93 % of control
[12]
  T/C: 98 % of control
[13]
  T/C: 95 % of control
[14]
  T/C: 98 % of control

## N#CC1C2CCC(O2)C1C(=O)Oc1ccccc1 (stereo not given)
[1]
  T/C: 103 % of control
[2]
  T/C: 95 % of control
[3]
  T/C: 97 % of control and 110 % of control

## CC(C(=O)c1ccccc1)C(c1ccccc1)P(=O)(c1ccccc1)c1ccccc1 (stereo not given)
[6]
  T/C: 102 % of control
[10]
  T/C: 104 % of control

## CC(C)C1(C(C)C)OCCO1
endpoint: mean survival time, dose: 50.0 mg/kg/injection, schedule: Q01DX009 (ip), vehicle: saline with Tween-80
  T/C: 98 % of control
[6]
  T/C: 93 % of control
[7]
  T/C: 97 % of control
[8]
  T/C: 95 % of control
[9]
  T/C: 88 % of control

## CC(=O)Nc1cccc(C(F)(F)F)c1
[15]
  T/C: 100 % of control
[16]
  T/C: 93 % of control
endpoint: mean survival time, dose: 200.0 mg/kg/injection, schedule: Q01DX009 (ip), vehicle: Klucel (hydroxypropylcellulose) (HPC)
  T/C: 100 % of control

## O=C(NNC(=O)C(F)(F)F)c1ccccc1
endpoint: mean survival time, dose: 12.5 mg/kg/injection, schedule: Q01DX009 (ip), vehicle: other
  T/C: 92 % of control
endpoint: mean survival time, dose: 25.0 mg/kg/injection, schedule: Q01DX009 (ip), vehicle: other
  T/C: 94 % of control
endpoint: mean survival time, dose: 50.0 mg/kg/injection, schedule: Q01DX009 (ip), vehicle: other
  T/C: 94 % of control
[17]
  T/C: 118 % of control
[18]
  T/C: 109 % of control

## COc1cccc2c1C(=O)c1c(O)c3c(c(O)c1C2=O)CC(O)(/C(C)=N/NC(=O)CCCCC(=O)N/N=C(\C)C1(O)Cc2c(O)c4c(c(O)c2C(OC2CC(N)C(O)C(C)O2)C1)C(=O)c1c(OC)cccc1C4=O)CC3OC1CC(N)C(O)C(C)O1 (stereo not given)
endpoint: median survival time, dose: 1.5 mg/kg/injection, schedule: Q01DX009 (ip), vehicle: water
  T/C: 116 % of control and 123 % of control
endpoint: median survival time, dose: 3.0 mg/kg/injection, schedule: Q01DX009 (ip), vehicle: water
  T/C: 121 % of control
endpoint: median survival time, dose: 6.25 mg/kg/injection, schedule: Q01DX009 (ip), vehicle: water
  T/C: 153 % of control
endpoint: median survival time, dose: 12.5 mg/kg/injection, schedule: Q01DX009 (ip), vehicle: water
  T/C: 108 % of control
endpoint: median survival time, dose: 24.0 mg/kg/injection, schedule: Q01DX009 (ip), vehicle: water
  T/C: 97 % of control
endpoint: median survival time, dose: 25.0 mg/kg/injection, schedule: Q01DX009 (ip), vehicle: water
  T/C: 87 % of control

## S=C1NC=CC(S)N1 (stereo not given)
[3]
  T/C: 103 % of control
[4]
  T/C: 98 % of control
[5]
  T/C: 98 % of control

## CCOC(=O)C(CCC(=O)OC)(CCC(=O)OC)C(=O)OCC
endpoint: mean survival time, dose: 100.0 mg/kg/injection, schedule: Q01DX005 (ip), vehicle: other
  T/C: 95 % of control
[17]
  T/C: 101 % of control
endpoint: mean survival time, dose: 100.0 mg/kg/injection, schedule: Q04DX002 (ip), vehicle: other
  T/C: 88 % of control
endpoint: mean survival time, dose: 200.0 mg/kg/injection, schedule: Q01DX005 (ip), vehicle: other
  T/C: 91 % of control
[18]
  T/C: 97 % of control
endpoint: mean survival time, dose: 200.0 mg/kg/injection, schedule: Q04DX002 (ip), vehicle: other
  T/C: 92 % of control
endpoint: mean survival time, dose: 400.0 mg/kg/injection, schedule: Q01DX005 (ip), vehicle: other
  T/C: 91 % of control
endpoint: mean survival time, dose: 400.0 mg/kg/injection, schedule: Q01DX009 (ip), vehicle: other
  T/C: 86 % of control
endpoint: mean survival time, dose: 400.0 mg/kg/injection, schedule: Q04DX002 (ip), vehicle: other
  T/C: 95 % of control

## c1ccc(-c2cc(-c3ccccc3)n(-c3ccccc3)c2-c2ccccc2)cc1
[6]
  T/C: 88 % of control
[8]
  T/C: 94 % of control
[10]
  T/C: 88 % of control

## C/C=C(/Cl)C(=O)O
[19]
  T/C: 100 % of control
[20]
  T/C: 101 % of control

## Cc1cc(C(C(N)=O)c2ccccc2)ccc1N(CCCl)CCCl (stereo not given)
endpoint: mean survival time, dose: 88.8 mg/kg/injection, schedule: Q01DX001 (ip), vehicle: other
  T/C: 122 % of control
endpoint: mean survival time, dose: 300.0 mg/kg/injection, schedule: Q01DX001 (ip), vehicle: other
  T/C: 104 % of control

## O=[N+]([O-])c1ccc2ccccc2c1I
[6]
  T/C: 92 % of control
[7]
  T/C: 87 % of control
[8]
  T/C: 98 % of control
[9]
  T/C: 93 % of control
[10]
  T/C: 90 % of control
[11]
  T/C: 92 % of control

## CCOP1(=S)Nc2cc(C)c(C)cc2N1
[1]
  T/C: 98 % of control
[2]
  T/C: 87 % of control
[3]
  T/C: 87 % of control
[4]
  T/C: 87 % of control

## COc1c(NC(=O)Nc2cccc(Cl)c2)cccc1[N+](=O)[O-]
[3]
  T/C: 92 % of control
[4]
  T/C: 88 % of control

## C=CCCCCCCCCC(=O)NCCCN1CCOCC1
[19]
  T/C: 91 % of control
[20]
  T/C: 86 % of control

## NC(=O)c1nc(Br)n(C2OC(CO)C(O)C2O)c1N (stereo not given)
endpoint: median survival time, dose: 44.0 mg/kg/injection, schedule: Q01DX005 (ip), vehicle: saline
  T/C: 104 % of control
endpoint: median survival time, dose: 88.0 mg/kg/injection, schedule: Q01DX005 (ip), vehicle: saline
  T/C: 101 % of control
endpoint: median survival time, dose: 175.9 mg/kg/injection, schedule: Q01DX005 (ip), vehicle: saline
  T/C: 102 % of control

## O=Cc1c[nH]c2ccc(Br)cc12
[12]
  T/C: 105 % of control
[13]
  T/C: 113 % of control
[14]
  T/C: 100 % of control

## CSC(=S)N(C)/N=C/c1cccc(C)n1
[7]
  T/C: 96 % of control
[9]
  T/C: 102 % of control
[11]
  T/C: 102 % of control

## Cc1ccc[n+](CCCCCCCC[n+]2cccc(C)c2)c1
endpoint: mean survival time, dose: 0.5 mg/kg/injection, schedule: Q04DX003 (ip), vehicle: saline
  T/C: 100 % of control
endpoint: mean survival time, dose: 1.0 mg/kg/injection, schedule: Q04DX003 (ip), vehicle: saline
  T/C: 103 % of control
endpoint: mean survival time, dose: 2.0 mg/kg/injection, schedule: Q04DX003 (ip), vehicle: saline
  T/C: 106 % of control

## O=C1C=C(Nc2ccccc2)CCC1
[6]
  T/C: 94 % of control
[8]
  T/C: 100 % of control
[10]
  T/C: 97 % of control

## CC(=O)/C=C\c1cc(C)ccc1O
endpoint: mean survival time, dose: 100.0 mg/kg/injection, schedule: Q01DX001 (ip), vehicle: Klucel (hydroxypropylcellulose) (HPC)
  T/C: 95 % of control
endpoint: mean survival time, dose: 200.0 mg/kg/injection, schedule: Q01DX001 (ip), vehicle: Klucel (hydroxypropylcellulose) (HPC)
  T/C: 103 % of control
endpoint: mean survival time, dose: 400.0 mg/kg/injection, schedule: Q01DX001 (ip), vehicle: Klucel (hydroxypropylcellulose) (HPC)
  T/C: 100 % of control

## O=C(/C(=C/c1ccccc1)CN1CCOCC1)c1ccccc1
endpoint: mean survival time, dose: 25.0 mg/kg/injection, schedule: Q01DX009 (ip), vehicle: Klucel (hydroxypropylcellulose) (HPC)
  T/C: 101 % of control
[15]
  T/C: 105 % of control
[16]
  T/C: 91 % of control

## CCOC(=O)C1=C(C)N(Cc2ccccc2)C(C)=C(C(=O)OCC)C1(C)C
[6]
  T/C: 107 % of control
[8]
  T/C: 109 % of control
[10]
  T/C: 107 % of control

Reference: PubChem BioAssay AID256 (DTP/NCI, 2004)
